In the NIST ThermoML archive (doi:10.1021/je060271a):
Several values for one entry are separate records, joined by “and”; a condition that tells them apart may be missing. Equal entries are not always repeated. Numbers after ± are expanded uncertainties.

Conditions: Liquid, Vibrating tube method

CCCCCC(=O)OCC(COC(=O)CCCCC)(COC(=O)CCCCC)COC(=O)CCCCC [pentaerythritol tetrahexanoate]
Conditions	mass density
323.15 K, 11949 kPa	980.8 ± 1.2 kg/m3
323.15 K, 11977 kPa	980.8 ± 1.2 kg/m3
323.15 K, 12000 kPa	980.8 ± 1.2 kg/m3
323.15 K, 12028 kPa	980.8 ± 1.2 kg/m3
323.15 K, 12051 kPa	980.9 ± 1.2 kg/m3
323.15 K, 12077 kPa	980.9 ± 1.2 kg/m3
323.15 K, 12104 kPa	981 ± 1.2 kg/m3
323.15 K, 12127 kPa	980.9 ± 1.2 kg/m3
323.15 K, 12155 kPa	980.9 ± 1.2 kg/m3
323.15 K, 12178 kPa	981 ± 1.2 kg/m3
323.15 K, 12205 kPa	981 ± 1.2 kg/m3
323.15 K, 12233 kPa	980.9 ± 1.2 kg/m3
323.15 K, 12257 kPa	981 ± 1.2 kg/m3
323.15 K, 12285 kPa	981.1 ± 1.2 kg/m3
323.15 K, 12310 kPa	981.2 ± 1.2 kg/m3
323.15 K, 12338 kPa	981.1 ± 1.2 kg/m3
323.15 K, 12362 kPa	981.2 ± 1.2 kg/m3
323.15 K, 12390 kPa	981.1 ± 1.2 kg/m3
323.15 K, 12414 kPa	981 ± 1.2 kg/m3
323.15 K, 12442 kPa	981.2 ± 1.2 kg/m3
323.15 K, 12471 kPa	981.2 ± 1.2 kg/m3
323.15 K, 12494 kPa	981.2 ± 1.2 kg/m3
323.15 K, 12523 kPa	981.3 ± 1.2 kg/m3
323.15 K, 12547 kPa	981.4 ± 1.2 kg/m3
323.15 K, 12576 kPa	981.2 ± 1.2 kg/m3
323.15 K, 12605 kPa	981.4 ± 1.2 kg/m3
323.15 K, 12630 kPa	981.2 ± 1.2 kg/m3
323.15 K, 12927 kPa	981.5 ± 1.2 kg/m3
323.15 K, 12950 kPa	981.5 ± 1.2 kg/m3
323.15 K, 12980 kPa	981.6 ± 1.2 kg/m3
323.15 K, 13006 kPa	981.6 ± 1.2 kg/m3
323.15 K, 13029 kPa	981.6 ± 1.2 kg/m3
323.15 K, 13186 kPa	981.7 ± 1.2 kg/m3
323.15 K, 13214 kPa	981.6 ± 1.2 kg/m3
323.15 K, 13237 kPa	981.6 ± 1.2 kg/m3
323.15 K, 13264 kPa	981.8 ± 1.2 kg/m3
323.15 K, 13292 kPa	981.7 ± 1.2 kg/m3
323.15 K, 13315 kPa	981.8 ± 1.2 kg/m3
323.15 K, 13345 kPa	981.8 ± 1.2 kg/m3
323.15 K, 13368 kPa	981.9 ± 1.2 kg/m3
323.15 K, 13396 kPa	981.8 ± 1.2 kg/m3
323.15 K, 13420 kPa	981.8 ± 1.2 kg/m3
323.15 K, 13891 kPa	982.1 ± 1.2 kg/m3
323.15 K, 13918 kPa	982.1 ± 1.2 kg/m3
323.15 K, 13941 kPa	982.1 ± 1.2 kg/m3
323.15 K, 13969 kPa	982.2 ± 1.2 kg/m3
323.15 K, 13992 kPa	982.2 ± 1.2 kg/m3
323.15 K, 14020 kPa	982.3 ± 1.2 kg/m3
323.15 K, 14514 kPa	982.5 ± 1.2 kg/m3
323.15 K, 14565 kPa	982.6 ± 1.2 kg/m3
323.15 K, 14593 kPa	982.6 ± 1.2 kg/m3
323.15 K, 14621 kPa	982.6 ± 1.2 kg/m3
323.15 K, 14645 kPa	982.6 ± 1.2 kg/m3
323.15 K, 14674 kPa	982.6 ± 1.2 kg/m3
323.15 K, 14698 kPa	982.5 ± 1.2 kg/m3
323.15 K, 14726 kPa	982.7 ± 1.2 kg/m3
323.15 K, 14750 kPa	982.7 ± 1.2 kg/m3
323.15 K, 14778 kPa	982.8 ± 1.2 kg/m3
323.15 K, 14807 kPa	982.7 ± 1.2 kg/m3
323.15 K, 14831 kPa	982.8 ± 1.2 kg/m3
323.15 K, 15257 kPa	983 ± 1.2 kg/m3
323.15 K, 15281 kPa	983.1 ± 1.2 kg/m3
323.15 K, 15309 kPa	983.1 ± 1.2 kg/m3
323.15 K, 15339 kPa	983 ± 1.2 kg/m3
323.15 K, 15364 kPa	983.2 ± 1.2 kg/m3
323.15 K, 15393 kPa	983.1 ± 1.2 kg/m3
323.15 K, 15417 kPa	983.1 ± 1.2 kg/m3
323.15 K, 20896 kPa	986.7 ± 1.2 kg/m3
323.15 K, 22666 kPa	987.8 ± 1.2 kg/m3
323.15 K, 28442 kPa	991.1 ± 1.2 kg/m3
323.15 K, 28670 kPa	991.3 ± 1.2 kg/m3
323.15 K, 28695 kPa	991.4 ± 1.2 kg/m3
323.15 K, 28724 kPa	991.4 ± 1.2 kg/m3
323.15 K, 28754 kPa	991.4 ± 1.2 kg/m3
323.15 K, 28783 kPa	991.4 ± 1.2 kg/m3
323.15 K, 28808 kPa	991.4 ± 1.2 kg/m3
323.15 K, 28838 kPa	991.4 ± 1.2 kg/m3
323.15 K, 28867 kPa	991.4 ± 1.2 kg/m3
323.15 K, 28897 kPa	991.6 ± 1.2 kg/m3
323.15 K, 28927 kPa	991.5 ± 1.2 kg/m3
323.15 K, 28957 kPa	991.6 ± 1.2 kg/m3
323.15 K, 28982 kPa	991.5 ± 1.2 kg/m3
323.15 K, 29012 kPa	991.5 ± 1.2 kg/m3
323.15 K, 29044 kPa	991.5 ± 1.2 kg/m3
323.15 K, 29070 kPa	991.5 ± 1.2 kg/m3
323.15 K, 29101 kPa	991.7 ± 1.2 kg/m3
323.15 K, 29132 kPa	991.7 ± 1.2 kg/m3
323.15 K, 29158 kPa	991.6 ± 1.2 kg/m3
323.15 K, 29554 kPa	991.8 ± 1.2 kg/m3
323.15 K, 29577 kPa	991.9 ± 1.2 kg/m3
323.15 K, 29762 kPa	992 ± 1.2 kg/m3
323.15 K, 29785 kPa	992 ± 1.2 kg/m3
323.15 K, 29812 kPa	992 ± 1.2 kg/m3
323.15 K, 29839 kPa	992.1 ± 1.2 kg/m3
323.15 K, 29866 kPa	992.2 ± 1.2 kg/m3
323.15 K, 29893 kPa	992.1 ± 1.2 kg/m3
323.15 K, 29921 kPa	992 ± 1.2 kg/m3
323.15 K, 29944 kPa	992 ± 1.2 kg/m3
323.15 K, 29972 kPa	992.2 ± 1.2 kg/m3
323.15 K, 30466 kPa	992.5 ± 1.2 kg/m3
323.15 K, 30496 kPa	992.4 ± 1.2 kg/m3
323.15 K, 30520 kPa	992.4 ± 1.2 kg/m3
323.15 K, 30549 kPa	992.5 ± 1.2 kg/m3
323.15 K, 31454 kPa	992.9 ± 1.2 kg/m3
323.15 K, 31474 kPa	992.9 ± 1.2 kg/m3
323.15 K, 31495 kPa	993 ± 1.2 kg/m3
323.15 K, 31516 kPa	993 ± 1.2 kg/m3
323.15 K, 31533 kPa	993 ± 1.2 kg/m3
323.15 K, 31653 kPa	993.1 ± 1.2 kg/m3
323.15 K, 31674 kPa	993.2 ± 1.2 kg/m3
323.15 K, 31695 kPa	993.2 ± 1.2 kg/m3
323.15 K, 31717 kPa	993.1 ± 1.2 kg/m3
323.15 K, 31734 kPa	993.2 ± 1.2 kg/m3
323.15 K, 31755 kPa	993.1 ± 1.2 kg/m3
323.15 K, 32384 kPa	993.6 ± 1.2 kg/m3 and 993.5 ± 1.2 kg/m3
323.15 K, 32385 kPa	993.5 ± 1.2 kg/m3
323.15 K, 32386 kPa	993.5 ± 1.2 kg/m3
323.15 K, 32387 kPa	993.6 ± 1.2 kg/m3
323.16 K, 578.8 kPa	973 ± 1.2 kg/m3
323.16 K, 580.8 kPa	973.2 ± 1.2 kg/m3
323.16 K, 582.6 kPa	973.1 ± 1.2 kg/m3
323.16 K, 584.7 kPa	973 ± 1.2 kg/m3
323.16 K, 586.6 kPa	973 ± 1.2 kg/m3
323.16 K, 588.7 kPa	973 ± 1.2 kg/m3
323.16 K, 590.7 kPa	973.3 ± 1.2 kg/m3
323.16 K, 714.1 kPa	973.2 ± 1.2 kg/m3
323.16 K, 716.9 kPa	973.2 ± 1.2 kg/m3
323.16 K, 718.8 kPa	973.3 ± 1.2 kg/m3
323.16 K, 721.8 kPa	973.3 ± 1.2 kg/m3
323.16 K, 724 kPa	973.2 ± 1.2 kg/m3
323.16 K, 727.1 kPa	973.1 ± 1.2 kg/m3
323.16 K, 729.4 kPa	973.2 ± 1.2 kg/m3
323.16 K, 732.2 kPa	973.2 ± 1.2 kg/m3
323.16 K, 735.1 kPa	973.1 ± 1.2 kg/m3
323.16 K, 737.9 kPa	973.2 ± 1.2 kg/m3
323.16 K, 1019.3 kPa	973.3 ± 1.2 kg/m3
323.16 K, 1022.8 kPa	973.4 ± 1.2 kg/m3
323.16 K, 1026.6 kPa	973.4 ± 1.2 kg/m3
323.16 K, 1030.3 kPa	973.5 ± 1.2 kg/m3
323.16 K, 1034.3 kPa	973.3 ± 1.2 kg/m3
323.16 K, 1037.9 kPa	973.5 ± 1.2 kg/m3
323.16 K, 1042.3 kPa	973.3 ± 1.2 kg/m3
323.16 K, 1045.6 kPa	973.4 ± 1.2 kg/m3
323.16 K, 1049.9 kPa	973.4 ± 1.2 kg/m3
323.16 K, 1053.7 kPa	973.4 ± 1.2 kg/m3
